How the values were obtained:
[1] = Drug metabolism in Sprague-Dawley rat hepatocytes treated with at 1 uM of paroxetine by radio-chromatogram analysis; type: ADME, cell-based, Hepatocyte; settings: TDE = time-dependent effect
[2] = Drug uptake in rat liver […] assessed as BCRP-mediated drug transport at 0.5 uM up to 2 mins by liquid scintillation counting in presence of ATP; type: ADME, subcellular
[3] = Drug metabolism in 4 days of sandwich-cultured human hepatocytes assessed as biliary excretion index treated with at 1 uM of paroxetine after 0.025 to 24 hrs by radio-chromatogram analysis; type: ADME, tissue-based, Bile, Hepatocyte; settings: 96 h
[4] = Drug metabolism in 4 days of sandwich-cultured human hepatocytes treated with at 1 uM of paroxetine after 24 hrs by radio-chromatogram analysis; type: ADME, cell-based, Hepatocyte; settings: 96 h
[5] = Drug metabolism in human hepatocytes treated with at 1 uM of paroxetine after 3 hrs by radio-chromatogram analysis; type: ADME, cell-based, Hepatocyte
[6] = Drug metabolism in 4 days of sandwich-cultured Sprague-Dawley rat hepatocytes treated with at 1 uM of paroxetine by radio-chromatogram analysis; type: ADME, cell-based, Hepatocyte; settings: 96 h, TDE = time-dependent effect
[7] = Drug metabolism in 4 days of sandwich-cultured Sprague-Dawley rat hepatocytes assessed as biliary excretion index treated with at 1 uM of paroxetine after 0.025 to 24 hrs by radio-chromatogram analysis; type: ADME, tissue-based, Bile, Hepatocyte; settings: 96 h
[8] = Drug metabolism in Sprague-Dawley rat hepatocytes assessed as parent compound level at 1 uM by radio-chromatogram analysis; type: ADME, cell-based, Hepatocyte; settings: TDE = time-dependent effect
[9] = Drug metabolism in Sprague-Dawley rat hepatocytes assessed as parent compound level at 1 uM after 3 hrs by radio-chromatogram analysis; type: ADME, cell-based, Hepatocyte; settings: read-out: Drug metabolism
[10] = Drug metabolism in 4 days of sandwich-cultured Sprague-Dawley rat hepatocytes assessed as parent compound level at 1 uM after 24 hrs by radio-chromatogram analysis; type: ADME, cell-based, Hepatocyte; settings: read-out: Drug metabolism
[11] = Drug metabolism in 4 days of sandwich-cultured Sprague-Dawley rat hepatocytes assessed as parent compound level at 1 uM by radio-chromatogram analysis; type: ADME, cell-based, Hepatocyte; settings: 96 h, TDE = time-dependent effect
[12] = Drug metabolism in 4 days of sandwich-cultured Sprague-Dawley rat hepatocytes assessed as 4-(((4R)-4-(4-fluorophenyl)piperidin-3-yl)methoxy)-2-methoxyphenyl hydrogen sulfate level at 1 uM by radio-chromatogram analysis; type: ADME, cell-based, Hepatocyte; settings: 96 h, TDE = time-dependent effect
[13] = Drug metabolism in 4 days of sandwich-cultured human hepatocytes assessed as parent compound level at 1 uM after 24 hrs by radio-chromatogram analysis; type: ADME, cell-based, Hepatocyte; settings: read-out: Drug metabolism
[14] = Drug metabolism in Sprague-Dawley rat hepatocytes assessed as 4-(((4R)-4-(4-fluorophenyl)piperidin-3-yl)methoxy)-2-methoxyphenyl hydrogen sulfate level at 1 uM by radio-chromatogram analysis; type: ADME, cell-based, Hepatocyte; settings: TDE = time-dependent effect
[15] = Drug metabolism in Sprague-Dawley rat hepatocytes assessed as (2S,3R,4S,5S,6R)-2-(4-(((4R)-4-(4-fluorophenyl)piperidin-3-yl)methoxy)-2-methoxyphenoxy)-6-(hydroxymethyl)tetrahydro-2H-pyran-3,4,5-triol level at 1 uM by radio-chromatogram analysis; type: ADME, cell-based, Hepatocyte; settings: TDE = time-dependent effect
[16] = Drug metabolism in human hepatocytes assessed as parent compound level at 1 uM after 3 hrs by radio-chromatogram analysis; type: ADME, cell-based, Hepatocyte; settings: read-out: Drug metabolism
[17] = Drug metabolism in 4 days of sandwich-cultured Sprague-Dawley rat hepatocytes assessed as (2S,3R,4S,5S,6R)-2-(4-(((4R)-4-(4-fluorophenyl)piperidin-3-yl)methoxy)-2-methoxyphenoxy)-6-(hydroxymethyl)tetrahydro-2H-pyran-3,4,5-triol level at 1 uM by radio-chromatogram analysis; type: ADME, cell-based, Hepatocyte; settings: 96 h, TDE = time-dependent effect

SMILES | Drug metabolism [1] | Drug uptake [2] | Drug metabolism [3] | Drug metabolism [4] | Drug metabolism [5] | Drug metabolism [6] | Drug metabolism [7] | Drug metabolism [8] | remaining at 3 h, 1 µM [9] | remaining at 96 h, 1 µM [10] | Drug metabolism [11] | Drug metabolism [12] | remaining at 96 h, 1 µM [13] | Drug metabolism [14] | Drug metabolism [15] | remaining at 3 h, 1 µM [16] | Drug metabolism [17]
COc1cc(OC[C@@H]2CNCC[C@H]2c2ccc(F)cc2)ccc1OS(=O)(=O)O | tde | Not Active | metabolite_detected | metabolite_detected | metabolite_detected | tde | metabolite_detected |  |  |  |  |  |  |  |  |  | 
Fc1ccc([C@@H]2CCNC[C@H]2COc2ccc3c(c2)OCO3)cc1.O=C(O)/C=C\C(=O)O |  |  |  |  |  |  |  | tde | 29.7% | 36.6% | tde | tde | 52.8% | tde | tde | 71.4% | tde
COc1cc(OC[C@@H]2CNCC[C@H]2c2ccc(F)cc2)ccc1O[C@@H]1O[C@H](C(=O)O)[C@@H](O)[C@H](O)[C@H]1O | tde | Active | metabolite_detected | metabolite_detected | metabolite_detected | tde | metabolite_detected |  |  |  |  |  |  |  |  |  | 
